Six compounds from PubChem BioAssay (NCI) can be followed below.

Each structure is given as a SMILES string.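 Where inhibition never reached the appropriate level, the endpoint shown equals the highest concentration tested. Otherwise, values were interpolated linearly from a five-concentration, 48-hour dose response in 96-well plates. Abbreviation: GI50, concentration required for 50% inhibition of growth. TGI: total growth inhibition.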 A value given as a limit tells only on which side of the number the result lay.

One test concerns OVCAR-4 ovarian. The test is described as follows: NCI tumour cell line growth inhibition, 48 h.
In the case of `N#Cc1c(NC(=S)NC(=O)c2ccccc2)nc2c(c1-c1ccccc1)CCC2`, the TGI was more than 100 µM.
Consider `O=C(Nc1ccc(I)cc1C(=O)NCCO)c1cccs1`, for which the TGI is more than 100 µM.
Same read-out and setting: for `CCn1cc(C(c2ccc(Cl)cc2)n2ccnc2)c2cc(Br)ccc21` (stereo not drawn) the value was 22.8 µM.
Compound `CSC1=Nc2ccccc2N(C)c2c1c(-c1ccccc1)nn2C` yielded a TGI of more than 100 µM.
Take `O=[Se]([O-])c1ccccc1.O=[Se]([O-])c1ccccc1.[OH3+].[OH3+].[Pt+2]`: the GI50 was 2.15 µM and the TGI came to 10.3 µM.
For the compound `COC1OC(=O)[C@H]2O[N+]([O-])=C(C)[C@@H]12` (stereo partly drawn), the TGI was more than 100 µM.

The subject of a further test is OVCAR-5 ovarian. In words: NCI tumour cell line growth inhibition, 48 h.
Consider `N#Cc1c(NC(=S)NC(=O)c2ccccc2)nc2c(c1-c1ccccc1)CCC2`, for which the TGI is more than 100 µM.
In turn, `O=C(Nc1ccc(I)cc1C(=O)NCCO)c1cccs1` yielded a TGI of more than 100 µM.
`CCn1cc(C(c2ccc(Cl)cc2)n2ccnc2)c2cc(Br)ccc21` (stereo not drawn) gave a TGI of 25.5 µM.
For `CSC1=Nc2ccccc2N(C)c2c1c(-c1ccccc1)nn2C`, the TGI is more than 100 µM.
As for `O=[Se]([O-])c1ccccc1.O=[Se]([O-])c1ccccc1.[OH3+].[OH3+].[Pt+2]`, the GI50 is 15.5 µM and the TGI came out at 39.1 µM.
In the case of `COC1OC(=O)[C@H]2O[N+]([O-])=C(C)[C@@H]12` (stereo partly drawn), the TGI was more than 100 µM.

The next test concerns SF-295 CNS. The test is described as follows: NCI tumour cell line growth inhibition, 48 h.
In turn, `N#Cc1c(NC(=S)NC(=O)c2ccccc2)nc2c(c1-c1ccccc1)CCC2` registered a TGI of more than 100 µM.
Still for that read-out and setting: for `O=C(Nc1ccc(I)cc1C(=O)NCCO)c1cccs1` the value was more than 100 µM; for `CCn1cc(C(c2ccc(Cl)cc2)n2ccnc2)c2cc(Br)ccc21` (stereo not drawn), 23.8 µM.
For the compound `CSC1=Nc2ccccc2N(C)c2c1c(-c1ccccc1)nn2C`, the TGI was 33.6 µM.
Turning to `O=[Se]([O-])c1ccccc1.O=[Se]([O-])c1ccccc1.[OH3+].[OH3+].[Pt+2]`, the GI50 was 3.42 µM and the TGI amounted to 16.9 µM.
`COC1OC(=O)[C@H]2O[N+]([O-])=C(C)[C@@H]12` (stereo partly drawn): the TGI was more than 100 µM.

For the next test, the system named is SNB-75 CNS. The test is described as follows: NCI tumour cell line growth inhibition, 48 h.
Compound `N#Cc1c(NC(=S)NC(=O)c2ccccc2)nc2c(c1-c1ccccc1)CCC2` yielded a TGI of more than 100 µM.
Same read-out and setting: for `CCn1cc(C(c2ccc(Cl)cc2)n2ccnc2)c2cc(Br)ccc21` (stereo not drawn) the value was 28.5 µM; for `CSC1=Nc2ccccc2N(C)c2c1c(-c1ccccc1)nn2C`, more than 100 µM.
With `O=[Se]([O-])c1ccccc1.O=[Se]([O-])c1ccccc1.[OH3+].[OH3+].[Pt+2]`, the GI50 was 6.17 µM and the TGI turned out to be 33.8 µM.
Regarding `COC1OC(=O)[C@H]2O[N+]([O-])=C(C)[C@@H]12` (stereo partly drawn), the TGI is more than 100 µM.

For a further test, the system named is KM12 colon. The test is described as follows: NCI tumour cell line growth inhibition, 48 h.
Turning to `N#Cc1c(NC(=S)NC(=O)c2ccccc2)nc2c(c1-c1ccccc1)CCC2`, the TGI is more than 100 µM.
The compound `O=C(Nc1ccc(I)cc1C(=O)NCCO)c1cccs1` returned a TGI of more than 100 µM.
The same measure, in the same setting: next, `CCn1cc(C(c2ccc(Cl)cc2)n2ccnc2)c2cc(Br)ccc21` (stereo not drawn): 24.3 µM; `CSC1=Nc2ccccc2N(C)c2c1c(-c1ccccc1)nn2C`: more than 100 µM.
Regarding `O=[Se]([O-])c1ccccc1.O=[Se]([O-])c1ccccc1.[OH3+].[OH3+].[Pt+2]`, the GI50 was 3.41 µM and the TGI was 25 µM.
For `COC1OC(=O)[C@H]2O[N+]([O-])=C(C)[C@@H]12` (stereo partly drawn), the TGI was more than 100 µM.

The subject of another test is SF-539 CNS. In words: NCI tumour cell line growth inhibition, 48 h.
The compound `N#Cc1c(NC(=S)NC(=O)c2ccccc2)nc2c(c1-c1ccccc1)CCC2` yielded a TGI of more than 100 µM.
`O=C(Nc1ccc(I)cc1C(=O)NCCO)c1cccs1` yielded a TGI of more than 100 µM.
In the case of `CCn1cc(C(c2ccc(Cl)cc2)n2ccnc2)c2cc(Br)ccc21` (stereo not drawn), the TGI amounted to 41.3 µM.
Same read-out and setting: next, `CSC1=Nc2ccccc2N(C)c2c1c(-c1ccccc1)nn2C`: more than 100 µM.
On to `O=[Se]([O-])c1ccccc1.O=[Se]([O-])c1ccccc1.[OH3+].[OH3+].[Pt+2]`, for which the GI50 is 10.6 µM and the TGI is 44.2 µM.
Compound `COC1OC(=O)[C@H]2O[N+]([O-])=C(C)[C@@H]12` (stereo partly drawn) had a TGI of more than 100 µM.

The subject of the next test is SN12C renal. In words: NCI tumour cell line growth inhibition, 48 h.
Turning to `N#Cc1c(NC(=S)NC(=O)c2ccccc2)nc2c(c1-c1ccccc1)CCC2`, the TGI is more than 100 µM.
On the same count and under the same terms, next, `O=C(Nc1ccc(I)cc1C(=O)NCCO)c1cccs1`: more than 100 µM; `CCn1cc(C(c2ccc(Cl)cc2)n2ccnc2)c2cc(Br)ccc21` (stereo not drawn): more than 100 µM; `CSC1=Nc2ccccc2N(C)c2c1c(-c1ccccc1)nn2C`: more than 100 µM.
Take `O=[Se]([O-])c1ccccc1.O=[Se]([O-])c1ccccc1.[OH3+].[OH3+].[Pt+2]`: the GI50 is 9.71 µM and the TGI is 53.3 µM.
Take `COC1OC(=O)[C@H]2O[N+]([O-])=C(C)[C@@H]12` (stereo partly drawn): the TGI is more than 100 µM.

For the next test, the system named is MOLT-4 leukemia. The test is described as follows: NCI tumour cell line growth inhibition, 48 h.
On to `N#Cc1c(NC(=S)NC(=O)c2ccccc2)nc2c(c1-c1ccccc1)CCC2`, for which the TGI was more than 100 µM.
Take `O=C(Nc1ccc(I)cc1C(=O)NCCO)c1cccs1`: the TGI is more than 100 µM.
Compound `CCn1cc(C(c2ccc(Cl)cc2)n2ccnc2)c2cc(Br)ccc21` (stereo not drawn) registered a TGI of more than 100 µM.
`CSC1=Nc2ccccc2N(C)c2c1c(-c1ccccc1)nn2C` returned a TGI of 31.7 µM.
For `O=[Se]([O-])c1ccccc1.O=[Se]([O-])c1ccccc1.[OH3+].[OH3+].[Pt+2]`, the GI50 is 3.62 µM and the TGI was more than 42.4 µM.
As for `COC1OC(=O)[C@H]2O[N+]([O-])=C(C)[C@@H]12` (stereo partly drawn), the TGI was more than 100 µM.

The subject of the next test is SK-MEL-2 melanoma. The test is described as follows: NCI tumour cell line growth inhibition, 48 h.
`O=C(Nc1ccc(I)cc1C(=O)NCCO)c1cccs1` showed a TGI of more than 100 µM.
`CCn1cc(C(c2ccc(Cl)cc2)n2ccnc2)c2cc(Br)ccc21` (stereo not drawn): the TGI was 38.8 µM.
The same measure, in the same setting: next, `CSC1=Nc2ccccc2N(C)c2c1c(-c1ccccc1)nn2C`: 82.7 µM.
For the compound `O=[Se]([O-])c1ccccc1.O=[Se]([O-])c1ccccc1.[OH3+].[OH3+].[Pt+2]`, the GI50 was 12.7 µM and the TGI was 35.5 µM.
The compound `COC1OC(=O)[C@H]2O[N+]([O-])=C(C)[C@@H]12` (stereo partly drawn) gave a TGI of more than 100 µM.

The subject of another test is SF-268 CNS. In words: NCI tumour cell line growth inhibition, 48 h.
For `N#Cc1c(NC(=S)NC(=O)c2ccccc2)nc2c(c1-c1ccccc1)CCC2`, the TGI was more than 100 µM.
Compound `O=C(Nc1ccc(I)cc1C(=O)NCCO)c1cccs1` showed a TGI of more than 100 µM.
Compound `CCn1cc(C(c2ccc(Cl)cc2)n2ccnc2)c2cc(Br)ccc21` (stereo not drawn) came in with a TGI of 27.4 µM.
The same measure, in the same setting: for `CSC1=Nc2ccccc2N(C)c2c1c(-c1ccccc1)nn2C` the value was more than 100 µM.
Regarding `O=[Se]([O-])c1ccccc1.O=[Se]([O-])c1ccccc1.[OH3+].[OH3+].[Pt+2]`, the GI50 is 6.37 µM and the TGI was 18.2 µM.
The compound `COC1OC(=O)[C@H]2O[N+]([O-])=C(C)[C@@H]12` (stereo partly drawn) gave a TGI of more than 100 µM.
